± gives the standard deviation of the averaged measurements.
Assay: TIMS collisional cross section (CCS, N2) of the lipid ion; higher = larger ion cross section
Conditions: ionization mode: positive, one isomer drawn

TIMS collisional cross section (sample type: HeLa) [Å²] | TIMS collisional cross section (sample type: Liver) [Å²] | TIMS collisional cross section (sample type: plasma) [Å²] | Structure (SMILES)
289.5 | – | – | CCCCC/C=C\CCCCCCCC(=O)OC[C@@H](COC(=O)CCCCCCCCCCC)OC(=O)CCCCCCCCCCCCC [TG 12:0_14:0_15:1] (ion (formula + adduct): [C44H82O6+NH4] 1+)
294.93 ± 0.32 | 295.2 ± 0.42 | 295.5 | CCCCCCCCCCCCCCCC(=O)OC[C@@H](COC(=O)CCCCCCCCCCC)OC(=O)CCCCCCCCCCCCC [TG 12:0_14:0_16:0] (ion (formula + adduct): [C45H86O6+NH4] 1+)
292.8 | – | – | CCCCCC/C=C\CCCCCCCC(=O)OC[C@@H](COC(=O)CCCCCCCCCCC)OC(=O)CCCCCCCCCCCCC [TG 12:0_14:0_16:1] (ion (formula + adduct): [C45H84O6+NH4] 1+)
– | – | 298.9 | CCCCCCCC/C=C\CCCCCCCC(=O)OC[C@@H](COC(=O)CCCCCCCCCCC)OC(=O)CCCCCCCCCCCCC [TG 12:0_14:0_18:1] (ion (formula + adduct): [C47H88O6+NH4] 1+)
– | 295.4 | 295.8 | CCCCC/C=C\C/C=C\CCCCCCCC(=O)OC[C@@H](COC(=O)CCCCCCCCCCC)OC(=O)CCCCCCCCCCCCC [TG 12:0_14:0_18:2] (ion (formula + adduct): [C47H86O6+NH4] 1+)
– | – | 291.9 | CCCC/C=C\CCCCCCCC(=O)O[C@H](COC(=O)CCCCCCCCCCC)COC(=O)CCCCCCCCCCCCCCC [TG 12:0_14:1_16:0] (ion (formula + adduct): [C45H84O6+NH4] 1+)
290.3 | – | – | CCCC/C=C\CCCCCCCC(=O)O[C@@H](COC(=O)CCCCCCC/C=C\CCCCCC)COC(=O)CCCCCCCCCCC [TG 12:0_14:1_16:1] (ion (formula + adduct): [C45H82O6+NH4] 1+)
– | – | 293.8 | CCCC/C=C\CCCCCCCC(=O)O[C@@H](COC(=O)CCCCCCC/C=C\C/C=C\CCCCC)COC(=O)CCCCCCCCCCC [TG 12:0_14:1_18:2] (ion (formula + adduct): [C47H84O6+NH4] 1+)
– | – | 302.1 | CCCCCCCCCCCCCCCCC(=O)OC[C@@H](COC(=O)CCCCCCCCCCC)OC(=O)CCCCCCCCCCCCCC [TG 12:0_15:0_17:0] (ion (formula + adduct): [C47H90O6+NH4] 1+)
– | 299.2 | – | CCCCCC/C=C\CCCCCCCC(=O)OC[C@@H](COC(=O)CCCCCCCCCCC)OC(=O)CCCCCCCCCCCCCCC [TG 12:0_16:0_16:1] (ion (formula + adduct): [C47H88O6+NH4] 1+)
– | 304.5 | – | CCCCCCCCCCCCCCCCC(=O)OC[C@@H](COC(=O)CCCCCCCCCCC)OC(=O)CCCCCCCCCCCCCCC [TG 12:0_16:0_17:0] (ion (formula + adduct): [C48H92O6+NH4] 1+)
305.7 | – | – | CCCCCCCC/C=C\CCCCCCCC(=O)OC[C@@H](COC(=O)CCCCCCCCCCC)OC(=O)CCCCCCCCCCCCCCC [TG 12:0_16:0_18:1] (ion (formula + adduct): [C49H92O6+NH4] 1+)
– | – | 307.4 | CCCCC/C=C\C/C=C\C/C=C\C/C=C\CCCC(=O)OC[C@@H](COC(=O)CCCCCCCCCCC)OC(=O)CCCCCCCCCCCCCCC [TG 12:0_16:0_20:4] (ion (formula + adduct): [C51H90O6+NH4] 1+)
– | 307.6 | – | CC/C=C\C/C=C\C/C=C\C/C=C\C/C=C\C/C=C\CCC(=O)OC[C@@H](COC(=O)CCCCCCCCCCC)OC(=O)CCCCCCCCCCCCCCC [TG 12:0_16:0_22:6] (ion (formula + adduct): [C53H90O6+NH4] 1+)
– | 303 | – | CCCCCC/C=C\CCCCCCCC(=O)O[C@H](COC(=O)CCCCCCCCCCC)COC(=O)CCCCCCCCCCCCCCCC [TG 12:0_16:1_17:0] (ion (formula + adduct): [C48H90O6+NH4] 1+)
– | – | 303.25 ± 0.35 | CCCCCC/C=C\CCCCCCCC(=O)O[C@@H](COC(=O)CCCCCCC/C=C\CCCCCCCC)COC(=O)CCCCCCCCCCC [TG 12:0_16:1_18:1] (ion (formula + adduct): [C49H90O6+NH4] 1+)
– | 301.1 | – | CCCCC/C=C\C/C=C\CCCCCCCC(=O)OC[C@@H](COC(=O)CCCCCCCCCCC)OC(=O)CCCCCCC/C=C\CCCCCC [TG 12:0_16:1_18:2] (ion (formula + adduct): [C49H88O6+NH4] 1+)
295.3 | – | – | CCCCCCCCCCCCCCCC(=O)OC[C@@H](COC(=O)CCCCCCCCCCCC)OC(=O)CCCCCCCCCCCC [TG 13:0_13:0_16:0] (ion (formula + adduct): [C45H86O6+NH4] 1+)
– | – | 292.3 | CCCCCCCCCCCCCC(=O)OC[C@@H](COC(=O)CCCCCCCCCCCC)OC(=O)CCCCCCCCCCCCC [TG 13:0_14:0_14:0] (ion (formula + adduct): [C44H84O6+NH4] 1+)

TIMS collisional cross section (sample type: HeLa) [Å²] | TIMS collisional cross section (sample type: Liver) [Å²] | TIMS collisional cross section (sample type: plasma) [Å²] | Structure (SMILES)
298.2 | 298.5 | 298.4 ± 0.14 | CCCCCCCCCCCCCCCC(=O)OC[C@@H](COC(=O)CCCCCCCCCCCC)OC(=O)CCCCCCCCCCCCC [TG 13:0_14:0_16:0] (ion (formula + adduct): [C46H88O6+NH4] 1+)
296.4 | 296 | 296.1 | CCCCCC/C=C\CCCCCCCC(=O)OC[C@@H](COC(=O)CCCCCCCCCCCC)OC(=O)CCCCCCCCCCCCC [TG 13:0_14:0_16:1] (ion (formula + adduct): [C46H86O6+NH4] 1+)
– | 301.8 | – | CCCCCCCCCCCCCCCCC(=O)OC[C@@H](COC(=O)CCCCCCCCCCCC)OC(=O)CCCCCCCCCCCCC [TG 13:0_14:0_17:0] (ion (formula + adduct): [C47H90O6+NH4] 1+)
– | 303.1 | – | CCCCCCCC/C=C\CCCCCCCC(=O)OC[C@@H](COC(=O)CCCCCCCCCCCC)OC(=O)CCCCCCCCCCCCC [TG 13:0_14:0_18:1] (ion (formula + adduct): [C48H90O6+NH4] 1+)
– | 305.2 | – | CC/C=C\C/C=C\C/C=C\C/C=C\C/C=C\C/C=C\CCC(=O)OC[C@@H](COC(=O)CCCCCCCCCCCC)OC(=O)CCCCCCCCCCCCC [TG 13:0_14:0_22:6] (ion (formula + adduct): [C52H88O6+NH4] 1+)
293.9 | 291.9 | – | CCCC/C=C\CCCCCCCC(=O)O[C@@H](COC(=O)CCCCCCC/C=C\CCCCCC)COC(=O)CCCCCCCCCCCC [TG 13:0_14:1_16:1] (ion (formula + adduct): [C46H84O6+NH4] 1+)
301.7 | 301.4 | – | CCCCCCCCCCCCCCCC(=O)OC[C@@H](COC(=O)CCCCCCCCCCCC)OC(=O)CCCCCCCCCCCCCC [TG 13:0_15:0_16:0] (ion (formula + adduct): [C47H90O6+NH4] 1+)
299.7 | 299.6 | – | CCCCCC/C=C\CCCCCCCC(=O)OC[C@@H](COC(=O)CCCCCCCCCCCC)OC(=O)CCCCCCCCCCCCCC [TG 13:0_15:0_16:1] (ion (formula + adduct): [C47H88O6+NH4] 1+)
305 | – | – | CCCCCCCCCCCCCCCC(=O)OC[C@@H](COC(=O)CCCCCCCCCCCC)OC(=O)CCCCCCCCCCCCCCC [TG 13:0_16:0_16:0] (ion (formula + adduct): [C48H92O6+NH4] 1+)
308 | – | – | CCCCCCCCCCCCCCCCC(=O)OC[C@@H](COC(=O)CCCCCCCCCCCC)OC(=O)CCCCCCCCCCCCCCC [TG 13:0_16:0_17:0] (ion (formula + adduct): [C49H94O6+NH4] 1+)
– | – | 309.5 | CCCCCCCC/C=C\CCCCCCCC(=O)OC[C@@H](COC(=O)CCCCCCCCCCCC)OC(=O)CCCCCCCCCCCCCCC [TG 13:0_16:0_18:1] (ion (formula + adduct): [C50H94O6+NH4] 1+)
306.8 | – | – | CCCCCC/C=C\CCCCCCCC(=O)O[C@@H](COC(=O)CCCCCCC/C=C\CCCCCCCC)COC(=O)CCCCCCCCCCCC [TG 13:0_16:1_18:1] (ion (formula + adduct): [C50H92O6+NH4] 1+)
– | – | 305.3 | CCCCC/C=C\C/C=C\CCCCCCCC(=O)OC[C@@H](COC(=O)CCCCCCCCCCCC)OC(=O)CCCCCCC/C=C\CCCCCC [TG 13:0_16:1_18:2] (ion (formula + adduct): [C50H90O6+NH4] 1+)
297.1 | – | – | CCCCCCCCCCCCCCC(=O)OC[C@@H](COC(=O)CCCCCCCCCCCCC)OC(=O)CCCCCCCCCCCCC [TG 14:0_14:0_15:0] (ion (formula + adduct): [C46H88O6+NH4] 1+)
301.7 | – | 301.3 ± 0.4 | CCCCCCCCCCCCCCCC(=O)OC[C@@H](COC(=O)CCCCCCCCCCCCC)OC(=O)CCCCCCCCCCCCC [TG 14:0_14:0_16:0] (ion (formula + adduct): [C47H90O6+NH4] 1+)
299.3 | 299.1 | – | CCCCCC/C=C\CCCCCCCC(=O)OC[C@@H](COC(=O)CCCCCCCCCCCCC)OC(=O)CCCCCCCCCCCCC [TG 14:0_14:0_16:1] (ion (formula + adduct): [C47H88O6+NH4] 1+)
304.6 | – | – | CCCCCCCCCCCCCCCCC(=O)OC[C@@H](COC(=O)CCCCCCCCCCCCC)OC(=O)CCCCCCCCCCCCC [TG 14:0_14:0_17:0] (ion (formula + adduct): [C48H92O6+NH4] 1+)
– | 305.9 | – | CCCCCCCC/C=C\CCCCCCCC(=O)OC[C@@H](COC(=O)CCCCCCCCCCCCC)OC(=O)CCCCCCCCCCCCC [TG 14:0_14:0_18:1] (ion (formula + adduct): [C49H92O6+NH4] 1+)
